# Assay results as given in patent publication US9302999B2, “Substituted triazoles as herbicides” (E. I. DU PONT DE NEMOURS AND COMPANY, priority 2012, dated 2016).
# What was measured:
# Format in all cases: in vivo
# [1] = test system: velvetleaf (Abutilon theophrasti); test: Test A pre-/postemergence: velvetleaf
# Outline: (§1)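 Visual 0–100 injury ratings (0 no effect, 100 complete control) taken about ten days after treatment, relative to untreated controls. Preemergence treatment was a directed soil spray; postemergence plants were 2–10 cm tall at one- to two-leaf stage. Soil: loam/sand blend.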
# rice (Oryza sativa) = test: Test B flooded paddy: rice; settings: Flood; 250 g ai/ha; applied to paddy water at 2-leaf stage; visually evaluated after 13 to 15 days
# Outline: (§2)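 Plants were grown to the 2-leaf stage, then pots were flooded to 3 cm above the soil and compounds were applied directly into the paddy water. Water depth was held for the whole test; after 13 to 15 days in a greenhouse, injury was visually rated against untreated controls (0 = no effect, 100 = complete control).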
# [2] = test system: ducksalad (Heteranthera limosa); test: Test B flooded paddy: ducksalad; settings: Flood; 250 g ai/ha; applied to paddy water at 2-leaf stage; visually evaluated after 13 to 15 days
# Outline: as §2
# [3] = test system: morningglory (Ipomoea spp.); test: Test A pre-/postemergence: morningglory
# Outline: as §1
# [4] = test system: wheat (Triticum aestivum); test: Test A pre-/postemergence: wheat
# Outline: as §1
# [5] = test system: barnyardgrass (Echinochloa crus-galli); test: Test A pre-/postemergence: barnyardgrass; settings: for Barnyardgrass plant response rating: Postemergence; for Plant response rating, Barnyardgrass: Preemergence
# Outline: as §1
# corn (Zea mays) = test: Test A pre-/postemergence: corn; settings: for Corn plant response rating: Postemergence; for Plant response rating, Corn: Preemergence
# Outline: as §1
# [6] = test system: foxtail, giant (giant foxtail, Setaria faberii); test: Test A pre-/postemergence: foxtail, giant; settings: for Foxtail, Giant plant response rating: Postemergence; for Plant response rating, Foxtail, Giant: Preemergence
# Outline: as §1
# [7] = test system: crabgrass, large (large crabgrass, Digitaria sanguinalis); test: Test A pre-/postemergence: crabgrass, large; settings: for Crabgrass, Large plant response rating: Postemergence; for Plant response rating, Crabgrass, Large: Preemergence
# Outline: as §1
# [8] = test system: barnyardgrass (Echinochloa crus-galli); test: Test B flooded paddy: barnyardgrass; settings: Flood; 250 g ai/ha; applied to paddy water at 2-leaf stage; visually evaluated after 13 to 15 days
# Outline: as §2
# [9] = test system: sedge, umbrella (small-flower umbrella sedge Cyperus difformis); test: Test B flooded paddy: sedge, umbrella; settings: Flood; 250 g ai/ha; applied to paddy water at 2-leaf stage; visually evaluated after 13 to 15 days
# Procedure: Seeds selected from rice (Oryza sativa), sedge, umbrella (small-flower umbrella sedge Cyperus difformis), ducksalad (Heteranthera limosa), and barnyardgrass (Echinochloa crus-galli) were grown to the 2-leaf stage for testing. At time of treatment, test pots were flooded to 3 cm above the soil surface, treated by application of test compounds directly to the paddy water, and then maintained at that water depth for the duration of the test.
# Treated plants and controls were maintained in a greenhouse for 13 to 15 days, after which time all species were compared to controls and visually evaluated. Plant response ratings, summarized in Table B, are based on a scale of 0 to 100 where 0 is no effect and 100 is complete control. A dash (-) response means no test result.
# [10] = test system: pigweed (Amaranthus retroflexus); test: Test A pre-/postemergence: pigweed
# Outline: as §1
# [11] = Postemergence, 125 g ai/ha, 0 to 100 scale, 0 is no effect, 100 is complete control
# [12] = Postemergence, 500 g ai/ha, visual rating on 0 to 100 scale (0 no effect, 100 complete control), approximately ten days
# [13] = Preemergence, 125 g ai/ha, 0 to 100 scale (0 no effect, 100 complete control)
# [14] = Preemergence, 500 g ai/ha, 0 to 100 scale, 0 is no effect, 100 is complete control
# [15] = 125 g ai/ha, 0 to 100 scale, 0 is no effect, 100 is complete control
# [16] = 500 g ai/ha, visual rating on 0 to 100 scale (0 no effect, 100 complete control), approximately ten days
# [17] = 125 g ai/ha, 0 to 100 scale (0 no effect, 100 complete control)
# [18] = 500 g ai/ha, 0 to 100 scale, 0 is no effect, 100 is complete control
# [19] = Preemergence, 125 g ai/ha, 0 to 100 scale where 0 is no effect and 100 is complete control
# [20] = Preemergence, 500 g ai/ha, 0 to 100 scale (0 no effect, 100 complete control)
# [21] = 125 g ai/ha, 0 to 100 scale where 0 is no effect and 100 is complete control
# [22] = 500 g ai/ha, 0 to 100 scale (0 no effect, 100 complete control)
structure (smiles),measurement,setting,value
Cc1nn(-c2ccc(Br)cc2)nc1Oc1ccnc(C(F)(F)F)c1 [Compound 53],Velvetleaf plant response rating,[1]; [11],80
same,Velvetleaf plant response rating,[1]; [12],100
same,"Plant response rating, Velvetleaf",[1]; [13],10
same,"Plant response rating, Velvetleaf",[1]; [14],50
same,"Plant response rating, Rice (0 to 100 scale, 0 is no effect, 100 is complete control)",rice (Oryza sativa),50
same,"Plant response rating, Ducksalad (0 to 100 scale, 0 is no effect, 100 is complete control)",[2],85
same,"Plant response rating, Morningglory",[3]; [13],30
same,"Plant response rating, Morningglory",[3]; [14],40
same,Wheat plant response rating,[4]; [11],20
same,Wheat plant response rating,[4]; [12],30
same,"Plant response rating, Wheat",[4]; [13],10
same,"Plant response rating, Wheat",[4]; [14],30
same,Barnyardgrass plant response rating,[5]; [15],90
same,Barnyardgrass plant response rating,[5]; [16],90
same,"Plant response rating, Barnyardgrass",[5]; [17],80
same,"Plant response rating, Barnyardgrass",[5]; [18],100
same,Corn plant response rating,corn (Zea mays); [15],30
same,Corn plant response rating,corn (Zea mays); [16],40
same,"Plant response rating, Corn",corn (Zea mays); [17],0
same,"Plant response rating, Corn",corn (Zea mays); [18],20
same,"Foxtail, Giant plant response rating",[6]; [15],90
same,"Foxtail, Giant plant response rating",[6]; [16],90
same,"Plant response rating, Foxtail, Giant",[6]; [17],100
same,"Plant response rating, Foxtail, Giant",[6]; [18],100
same,"Crabgrass, Large plant response rating",[7]; [15],90
same,"Crabgrass, Large plant response rating",[7]; [16],90
same,"Plant response rating, Crabgrass, Large",[7]; [17],100
same,"Plant response rating, Crabgrass, Large",[7]; [18],100
same,"Plant response rating, Barnyardgrass (0 to 100 scale, 0 is no effect, 100 is complete control)",[8],60
same,"Plant response rating, Sedge, Umbrella (0 to 100 scale, 0 is no effect, 100 is complete control)",[9],85
same,Pigweed plant response rating,[10]; [11],100
same,Pigweed plant response rating,[10]; [12],100
same,"Plant response rating, Pigweed",[10]; [13],90
same,"Plant response rating, Pigweed",[10]; [14],100
Cc1nn(-c2ccc(F)c(F)c2)nc1Cc1ccnc(C(F)(F)F)c1 [Compound 55],Velvetleaf plant response rating,[1]; [11],100
same,Velvetleaf plant response rating,[1]; [12],100
same,"Plant response rating, Velvetleaf",[1]; [13],40
same,"Plant response rating, Velvetleaf",[1]; [14],70
same,"Plant response rating, Rice (0 to 100 scale, 0 is no effect, 100 is complete control)",rice (Oryza sativa),60
same,"Plant response rating, Ducksalad (0 to 100 scale, 0 is no effect, 100 is complete control)",[2],100
same,"Plant response rating, Morningglory",[3]; [13],50
same,"Plant response rating, Morningglory",[3]; [14],80
same,Wheat plant response rating,[4]; [11],20
same,Wheat plant response rating,[4]; [12],40
same,"Plant response rating, Wheat",[4]; [13],10
same,"Plant response rating, Wheat",[4]; [14],40
same,Barnyardgrass plant response rating,[5]; [15],90
same,Barnyardgrass plant response rating,[5]; [16],90
same,"Plant response rating, Barnyardgrass",[5]; [17],90
same,"Plant response rating, Barnyardgrass",[5]; [18],100
same,Corn plant response rating,corn (Zea mays); [15],20
same,Corn plant response rating,corn (Zea mays); [16],50
same,"Plant response rating, Corn",corn (Zea mays); [17],20
same,"Plant response rating, Corn",corn (Zea mays); [18],50
same,"Foxtail, Giant plant response rating",[6]; [15],90
same,"Foxtail, Giant plant response rating",[6]; [16],90
same,"Plant response rating, Foxtail, Giant",[6]; [17],100
same,"Plant response rating, Foxtail, Giant",[6]; [18],100
same,"Crabgrass, Large plant response rating",[7]; [15],80
same,"Crabgrass, Large plant response rating",[7]; [16],90
same,"Plant response rating, Crabgrass, Large",[7]; [17],100
same,"Plant response rating, Crabgrass, Large",[7]; [18],100
same,"Plant response rating, Barnyardgrass (0 to 100 scale, 0 is no effect, 100 is complete control)",[8],70
same,"Plant response rating, Sedge, Umbrella (0 to 100 scale, 0 is no effect, 100 is complete control)",[9],100
same,Pigweed plant response rating,[10]; [11],100
same,Pigweed plant response rating,[10]; [12],100
same,"Plant response rating, Pigweed",[10]; [13],100
same,"Plant response rating, Pigweed",[10]; [14],100
Cc1cnccc1Oc1nn(-c2ccc(F)cc2)nc1C [Compound 87],Velvetleaf plant response rating,[1]; [11],0
same,Velvetleaf plant response rating,[1]; [12],0
same,"Plant response rating, Velvetleaf",[1]; [13],0
same,"Plant response rating, Velvetleaf",[1]; [14],0
same,"Plant response rating, Rice (0 to 100 scale, 0 is no effect, 100 is complete control)",rice (Oryza sativa),0
same,"Plant response rating, Ducksalad (0 to 100 scale, 0 is no effect, 100 is complete control)",[2],0
same,Morningglory plant response rating,[3]; [11],0
same,Morningglory plant response rating,[3]; [12],0
same,"Plant response rating, Morningglory",[3]; [13],0
same,"Plant response rating, Morningglory",[3]; [14],0
same,Wheat plant response rating,[4]; [11],0
same,Wheat plant response rating,[4]; [12],0
same,"Plant response rating, Wheat",[4]; [13],0
same,"Plant response rating, Wheat",[4]; [14],0
same,Barnyardgrass plant response rating,[5]; [15],0
same,Barnyardgrass plant response rating,[5]; [16],0
same,"Plant response rating, Barnyardgrass",[5]; [17],0
same,"Plant response rating, Barnyardgrass",[5]; [18],0
same,Corn plant response rating,corn (Zea mays); [15],0
same,Corn plant response rating,corn (Zea mays); [16],0
same,"Plant response rating, Corn",corn (Zea mays); [17],0
same,"Plant response rating, Corn",corn (Zea mays); [18],0
same,"Foxtail, Giant plant response rating",[6]; [15],0
same,"Foxtail, Giant plant response rating",[6]; [16],0
same,"Plant response rating, Foxtail, Giant",[6]; [17],0
same,"Plant response rating, Foxtail, Giant",[6]; [18],0
same,"Crabgrass, Large plant response rating",[7]; [15],0
same,"Crabgrass, Large plant response rating",[7]; [16],0
same,"Plant response rating, Crabgrass, Large",[7]; [17],0
same,"Plant response rating, Crabgrass, Large",[7]; [18],0
same,"Plant response rating, Barnyardgrass (0 to 100 scale, 0 is no effect, 100 is complete control)",[8],0
same,"Plant response rating, Sedge, Umbrella (0 to 100 scale, 0 is no effect, 100 is complete control)",[9],50
same,Pigweed plant response rating,[10]; [11],0
same,Pigweed plant response rating,[10]; [12],0
same,"Plant response rating, Pigweed",[10]; [13],0
same,"Plant response rating, Pigweed",[10]; [14],0
Cc1cc(Oc2nn(-c3ccc(F)cc3)nc2C)ccn1 [Compound 135],"Plant response rating, Velvetleaf",[1]; [11],10
same,Velvetleaf plant response rating,[1]; [12],30
same,"Plant response rating, Velvetleaf",[1]; [19],0
same,"Plant response rating, Velvetleaf",[1]; [20],0
same,"Plant response rating, Rice (0 to 100 scale, 0 is no effect, 100 is complete control)",rice (Oryza sativa),0
same,"Plant response rating, Ducksalad (0 to 100 scale, 0 is no effect, 100 is complete control)",[2],0
same,"Plant response rating, Morningglory",[3]; [11],0
same,Morningglory plant response rating,[3]; [12],10
same,"Plant response rating, Morningglory",[3]; [19],0
same,"Plant response rating, Morningglory",[3]; [20],0
same,"Plant response rating, Wheat",[4]; [11],0
same,Wheat plant response rating,[4]; [12],0
same,"Plant response rating, Wheat",[4]; [19],0
same,"Plant response rating, Wheat",[4]; [20],0
same,Barnyardgrass plant response rating,[5]; [15],0
same,Barnyardgrass plant response rating,[5]; [16],10
same,"Plant response rating, Barnyardgrass",[5]; [21],0
same,"Plant response rating, Barnyardgrass",[5]; [22],0
same,Corn plant response rating,corn (Zea mays); [15],10
same,Corn plant response rating,corn (Zea mays); [16],20
same,"Plant response rating, Corn",corn (Zea mays); [21],0
same,"Plant response rating, Corn",corn (Zea mays); [22],0
same,"Foxtail, Giant plant response rating",[6]; [15],0
same,"Foxtail, Giant plant response rating",[6]; [16],10
same,"Plant response rating, Foxtail, Giant",[6]; [21],0
same,"Plant response rating, Foxtail, Giant",[6]; [22],0
same,"Crabgrass, Large plant response rating",[7]; [15],10
same,"Crabgrass, Large plant response rating",[7]; [16],20
same,"Plant response rating, Crabgrass, Large",[7]; [21],0
same,"Plant response rating, Crabgrass, Large",[7]; [22],0
same,"Plant response rating, Barnyardgrass (0 to 100 scale, 0 is no effect, 100 is complete control)",[8],0
same,"Plant response rating, Sedge, Umbrella (0 to 100 scale, 0 is no effect, 100 is complete control)",[9],0
same,"Plant response rating, Pigweed",[10]; [11],20
same,Pigweed plant response rating,[10]; [12],50
same,"Plant response rating, Pigweed",[10]; [19],0
same,"Plant response rating, Pigweed",[10]; [20],0
